Results as given in patent publication US20220401352A1, “A COSMETIC COMPOSITION” (Conopco, Inc., d/b/a UNILEVER, priority 2019, published 2022).
Structures can show the parent of a compound that is named as a salt.

Experiments:
[1] = test system: interleukin (IL)-6; assay: Human immune cell line THP-1 in vitro assay: IL-6 in supernatant by ELISA after co-treatment with LPS; assay type: cell-based; settings: PMA-differentiated THP1-XBlue cells co-treated with E. coli LPS and composition, 24 hours; percentage to LPS-treated cells (=100%)
Protocol: (§1) Human Immune Cell Line THP-1 Invitro Assay The following procedure was used to determine the anti-inflammation efficacy: THP1-XBlue™ (Cat No: thpx-sp, InvivoGen) cells were cultured as suspense in RPMI 1640 medium supplemented with 10% FBS, penicillin (10 U/mL)-streptomycin (10 μg/ML). Cells were differentiated in 24-well plates at the density of 5×10^5 cells/well with 100 nM PMA for 72 hours. Cells were then co-treated with pure E. coli ipopolysaccharides (LPS) and various compositions. After 24 hours, the supernatants were collected and measured for interleukin (IL)-6 as a pro-inflammatory biomarker using enzyme-linked immunosorbent assay (ELISA). IL-6 is a cytokine, or cell-signaling protein, encoded in humans by the IL-6 gene which is both pro-inflammatory and anti-inflammatory and which stimulates the immune response to inflammation. Expression of IL-6 was calculated as the percentage to LPS-treated cells which was designated as 100%. It can be considered as no anti-inflammatory effect if the calculated result is over 100%. Cell viability was calculated as the percentage to non-treated cells which was designated as 100%. P value was analyzed by Student's t-test comparing combination groups and individual compound groups (expression of IL-6).

[2] = test system: THP1-XBlue cells; assay: Cell viability in the THP-1 in vitro assay; assay type: cell-based, human; settings: PMA-differentiated THP1-XBlue cells co-treated with LPS and composition, 24 hours; percentage to non-treated cells (=100%)
Protocol: as §1, with “The” for “Human Immune Cell Line THP-1 Invitro Assay The”, “IL-6). P value <0.05 indicates synergistic effect.” for “IL-6).”

SMILES | expression of IL-6 (%) [1] | Cell Viability (%) [2]
Cc1cc(CC(C)CC(C)(C)C)n(O)c(=O)c1 (stereo not shown) [B, 1-hydroxy-4-methyl-6-(2,4,4-trimethylpentyl)-2(1H) pyridinone monoethanolamine salt] | 76.4% | 81%
OCc1ccccc1O[C@@H]1O[C@H](CO)[C@@H](O)[C@H](O)[C@H]1O [C, salicin] | 65.0% | 86%
